Experimental data as given in patent publication US20260263603A1, “PRODRUGS, PRODRUG COMPOSITIONS AND RELATED METHODS” (Praesidia Biotherapeutics Inc., priority 2023, published 2026).
Read-outs that look alike come from different tables or passages of the source.

What was measured:
[1] = in vitro; details: for half-life at 5 μM: plasma; for Human Plasma Stability t½ min: 37° C., 5 μM, t½ > 240 min considered stable
Protocol: Rat and human plasma were obtained from qualified vendors. […] The assay was performed in duplicate.

[2] = in vitro; details: 0.5 mg microsome/mL, 1 mM NADPH; for Rat liver microsomal stability (RLM) t½ min: 1 uM
Protocol: Precipitated proteins were removed by centrifugation, followed by withdrawing and diluting the supernatant for analysis. Two positive controls and negative controls (without NADPH) were used in the study. All samples were analyzed in duplicates. LC/MS/MS was performed for detection and quantification of the test compounds. Linear regression was determined using the remaining percentage of the parent drug at each incubation time and t1/2 value was calculated.

[3] = 37° C., 5 μM; for Chemical Stability, pH 4.5: pH 4.5 PBS; for Chemical Stability, pH 7.4: pH 7.4 PBS
Protocol: Chemical stability of the prodrug compounds was tested at pH 4.5 and pH 7.4 (pH adjusted in phosphate buffer saline). Both buffer solutions at two pHs were prepared in house. 2 μL of 500 μM stock solution of the prodrug was added to each vial containing 198 μL PBS at pH 7.4 or pH 4.5 and mixed evenly. The assay was performed in duplicate. The final concentration of the test compound was 5 μM. samples were incubated at 37° C. at 600 rpm. […] Samples from individual vials were used for the different time points. The samples were vortexed for 2 minutes and centrifuged at 3,220 g for 5 minutes at 4° C. […] of the supernatant was transferred to a new plate.

[4] = target: Glucocorticoid receptor (GR) (Homo sapiens, UniProt P04150)
Protocol: Glucocorticoid receptor (GR) binding of prodrugs was determined using TR-FRET GR competitive binding assay. Three-point (0.1, 1 and 10 μM) binding was evaluated for each prodrug.

[5] = in vitro; details: human, Caco-2, pH 7.4
Protocol: The objective of this study was to evaluate the bidirectional permeability and absorption mechanisms of the test compounds. CaCO-2 cells were cultured, and a monolayer was developed in-house in 96 well-plates over 18 days using standard protocol. The monolayer was tested for the integrity of the cell monolayer before using.
Test compounds were added to the transwell insert (apical compartment) to determine the rate of drug transport in the apical to basolateral direction. To determine the rate of drug transport in the basolateral to apical direction, the test compound was added to the receiver plate wells (basolateral compartment). Appropriate amount of HBSS (10 mM HEPES, pH 7.4) was added in both compartments for a final volume of 200 μL. The plates were incubated at 37° C. with shaking at 150 rpm on a rotary shaker for 2 hours. At the end of the transport period, 50 μL from the apical and basolateral wells were collected and 4 volume of cold acetonitrile containing internal standards (IS: 100 nM alprazolam, 200 nM labetalol, and 2 μM ketoprofen) was added to each sample to terminate the reaction. The samples were vortexed and centrifuged at 3,800 g for 20 minutes. An aliquot of 150 μL of the supernatant was used for LC/MS/MS analysis. All samples were analyzed in duplicates. Samples were analyzed through LC/MS/MS for estimating the permeability and efflux of the compounds across Caco-2 cell monolayers.

[6] = in vitro; details: dog, MDCK

Glucocorticoid receptor (GR), sequence (P04150 whole entry, species assumed): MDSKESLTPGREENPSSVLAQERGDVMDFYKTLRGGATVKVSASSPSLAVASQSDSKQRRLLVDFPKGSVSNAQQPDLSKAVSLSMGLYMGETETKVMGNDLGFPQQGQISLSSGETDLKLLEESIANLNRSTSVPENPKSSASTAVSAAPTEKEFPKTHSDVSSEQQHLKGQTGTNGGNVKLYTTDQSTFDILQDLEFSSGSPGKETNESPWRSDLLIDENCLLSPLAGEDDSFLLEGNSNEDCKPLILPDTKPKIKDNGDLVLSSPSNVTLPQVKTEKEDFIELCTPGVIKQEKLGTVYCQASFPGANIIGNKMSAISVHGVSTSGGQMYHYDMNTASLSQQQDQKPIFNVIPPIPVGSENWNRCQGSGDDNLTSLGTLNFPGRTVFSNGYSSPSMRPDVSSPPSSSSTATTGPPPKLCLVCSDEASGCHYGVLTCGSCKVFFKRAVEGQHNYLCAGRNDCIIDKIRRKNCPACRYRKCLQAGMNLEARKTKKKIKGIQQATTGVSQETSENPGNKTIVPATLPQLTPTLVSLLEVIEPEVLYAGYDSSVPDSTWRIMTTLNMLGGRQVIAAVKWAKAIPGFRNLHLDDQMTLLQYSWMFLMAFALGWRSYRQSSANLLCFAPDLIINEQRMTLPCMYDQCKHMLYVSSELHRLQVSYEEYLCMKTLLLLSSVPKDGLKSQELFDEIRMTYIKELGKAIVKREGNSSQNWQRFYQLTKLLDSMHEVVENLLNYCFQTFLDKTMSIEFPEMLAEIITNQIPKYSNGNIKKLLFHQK

SMILES: C[C@@H]1C[C@H]2[C@@H]3CCC4=CC(=O)C=C[C@]4(C)[C@@]3(F)[C@@H](O)C[C@]2(C)[C@@]1(O)/C(CO)=N\NC(=O)C(N)Cc1ccccc1 (single isomer, unassigned) [Compound IIIA]
- half-life at 5 μM ([1]; human): > 4 h
- half-life at 5 μM ([1]; rat): > 4 h
- Rat liver microsomal stability (RLM) t½ min [2]: 0.55 h
- Chemical Stability, pH 4.5 [3]: Yes
- Chemical Stability, pH 7.4 [3]: Yes

SMILES: C[C@@H]1C[C@H]2[C@@H]3CCC4=CC(=O)C=C[C@]4(C)[C@@]3(F)[C@@H](O)C[C@]2(C)[C@@]1(O)/C(CO)=N\NC(=O)C(N)Cc1ccccc1 (single isomer, unassigned) [Compound IIIB]
- Human Plasma Stability t½ min [1]: >4 h
- Rat liver microsomal stability (RLM) t½ min [2]: 1.35 h
- GR Binding Data ([4]; @ 0.1 uM): 8%
- GR Binding Data ([4]; @ 1 uM): 8%
- GR Binding Data ([4]; @ 10 uM): 68%
- Chemical Stability, pH 4.5 [3]: Yes
- Chemical Stability, pH 7.4 [3]: Yes

SMILES: CC(C)C(N)C(=O)N/N=C(/CO)[C@@]1(O)[C@H](C)C[C@H]2[C@@H]3CCC4=CC(=O)C=C[C@]4(C)[C@@]3(F)[C@@H](O)C[C@@]21C (single isomer, unassigned) [Compound IVA]
- half-life at 5 μM ([1]; human): > 4 h
- half-life at 5 μM ([1]; rat): > 4 h
- Rat liver microsomal stability (RLM) t½ min [2]: 0.583 h
- GR Binding Data ([4]; @ 0.1 uM): 4%
- GR Binding Data ([4]; @ 1 uM): 8%
- GR Binding Data ([4]; @ 10 uM): 64%
- Papp A→B at 2 h [5]: 0.2 ×10⁻⁶ cm/s
- Papp B→A at 2 h [5]: 4 ×10⁻⁶ cm/s
- Chemical Stability, pH 4.5 [3]: Yes
- Chemical Stability, pH 7.4 [3]: Yes

SMILES: CC(C)C(N)C(=O)N/N=C(/CO)[C@@]1(O)[C@H](C)C[C@H]2[C@@H]3CCC4=CC(=O)C=C[C@]4(C)[C@@]3(F)[C@@H](O)C[C@@]21C (single isomer, unassigned) [Compound IVB]
- Human Plasma Stability t½ min [1]: >4 h
- Rat liver microsomal stability (RLM) t½ min [2]: 1.8 h
- GR Binding Data ([4]; @ 0.1 uM): 3%
- GR Binding Data ([4]; @ 1 uM): 16%
- GR Binding Data ([4]; @ 10 uM): 72%
- Chemical Stability, pH 4.5 [3]: Yes
- Chemical Stability, pH 7.4 [3]: Yes

SMILES: CC(C)C(N)C(=O)N/N=C1\C=C[C@@]2(C)C(=C1)CC[C@H]1[C@@H]3C[C@@H](C)[C@](O)(C(=O)CO)[C@@]3(C)C[C@H](O)[C@@]12F (single isomer, unassigned) [Compound VA]
- half-life at 5 μM ([1]; rat): > 4 h
- half-life at 1 uM ([2]; rat, liver microsomes, Rat liver microsomal stability (RLM) t½ min): 0.733 h
- Chemical Stability, pH 4.5 [3]: Yes
- Chemical Stability, pH 7.4 [3]: Yes

SMILES: CC(C)C(N)C(=O)N/N=C1\C=C[C@@]2(C)C(=C1)CC[C@H]1[C@@H]3C[C@@H](C)[C@](O)(C(=O)CO)[C@@]3(C)C[C@H](O)[C@@]12F (single isomer, unassigned) [Compound VB]
- Chemical Stability, pH 4.5 [3]: Yes
- Chemical Stability, pH 7.4 [3]: Yes

SMILES: CCC(=O)N/N=C(\CO)[C@@]1(O)[C@H](C)C[C@H]2[C@@H]3CCC4=CC(=O)C=C[C@]4(C)[C@@]3(F)[C@@H](O)C[C@@]21C [Compound II]
- half-life at 5 μM ([1]; human): > 4 h
- Chemical Stability, pH 4.5 [3]: Yes
- Chemical Stability, pH 7.4 [3]: Yes

SMILES: C[C@@H]1C[C@H]2[C@@H]3CCC4=C/C(=N/NC(=O)[C@H](Cc5ccccc5)N(C)C)C=C[C@]4(C)[C@@]3(F)[C@@H](O)C[C@]2(C)[C@@]1(O)C(=O)CO [Compound IXA]
- half-life at 5 μM ([1]; rat): > 4 h

SMILES: C[C@@H]1C[C@H]2[C@@H]3CCC4=C/C(=N\NC(=O)[C@H](Cc5ccccc5)N(C)C)C=C[C@]4(C)[C@@]3(F)[C@@H](O)C[C@]2(C)[C@@]1(O)C(=O)CO [Compound IXB]
- half-life at 5 μM ([1]; rat): > 4 h

SMILES: CCC(=O)N/N=C1\C=C[C@@]2(C)C(=C1)CC[C@H]1[C@@H]3C[C@@H](C)[C@](O)(C(=O)CO)[C@@]3(C)C[C@H](O)[C@@]12F [Compound I]
- half-life at 5 μM ([1]; human): > 4 h
- Chemical Stability, pH 4.5 [3]: Yes
- Chemical Stability, pH 7.4 [3]: Yes

SMILES: C[C@@H]1C[C@H]2[C@@H]3CCC4=C/C(=N/NC(=O)[C@@H](N)Cc5ccccc5)C=C[C@]4(C)[C@@]3(F)[C@@H](O)C[C@]2(C)[C@@]1(O)C(=O)CO [Compound VIIA]
- half-life at 5 μM ([1]; rat): > 4 h
- Papp A→B [6]: 0.15 ×10⁻⁶ cm/s
- Papp B→A [6]: 1.29 ×10⁻⁶ cm/s
- Papp A→B at 2 h [5]: 0.17 ×10⁻⁶ cm/s
- Papp B→A at 2 h [5]: 11 ×10⁻⁶ cm/s
- Chemical Stability, pH 4.5 [3]: Yes
- Chemical Stability, pH 7.4 [3]: Yes

SMILES: C[C@@H]1C[C@H]2[C@@H]3CCC4=C/C(=N\NC(=O)[C@@H](N)Cc5ccccc5)C=C[C@]4(C)[C@@]3(F)[C@@H](O)C[C@]2(C)[C@@]1(O)C(=O)CO [Compound VIIB]
- half-life at 5 μM ([1]; rat): > 4 h
- Papp A→B [6]: 0.12 ×10⁻⁶ cm/s
- Papp B→A [6]: 0.87 ×10⁻⁶ cm/s
- Papp A→B at 2 h [5]: 0.13 ×10⁻⁶ cm/s
- Papp B→A at 2 h [5]: 9 ×10⁻⁶ cm/s
- Chemical Stability, pH 4.5 [3]: Yes
- Chemical Stability, pH 7.4 [3]: Yes

SMILES: C[C@@H]1C[C@H]2[C@@H]3CCC4=C/C(=N\NC(=O)[C@H](N)Cc5ccccc5)C=C[C@]4(C)[C@@]3(F)[C@@H](O)C[C@]2(C)[C@@]1(O)C(=O)CO [Compound VIIIB]
- half-life at 5 μM ([1]; rat): > 4 h
- GR Binding Data ([4]; @ 0.1 uM): 19%
- GR Binding Data ([4]; @ 1 uM): 26%
- GR Binding Data ([4]; @ 10 uM): 72%

SMILES: C[C@@H]1C[C@H]2[C@@H]3CCC4=C/C(=N/NC(=S)[C@@H](N)Cc5ccccc5)C=C[C@]4(C)[C@@]3(F)[C@@H](O)C[C@]2(C)[C@@]1(O)C(=O)CO [Compound X]
- half-life at 5 μM ([1]; rat): 2.08 h
- Papp A→B [6]: < 0.17 ×10⁻⁶ cm/s
- Papp B→A [6]: 1.82 ×10⁻⁶ cm/s
- Papp A→B at 2 h [5]: 0.33 ×10⁻⁶ cm/s
- Papp B→A at 2 h [5]: 4 ×10⁻⁶ cm/s

SMILES: C[C@@H]1C[C@H]2[C@@H]3CCC4=CC(=O)C=C[C@]4(C)[C@@]3(F)[C@@H](O)C[C@]2(C)[C@@]1(O)C(=O)CO [Dexamethasone, reference compound]
- GR Binding Data ([4]; @ 1 nM): 16%
- GR Binding Data ([4]; @ 10 nM): 50%
- GR Binding Data ([4]; @100 nM): 93%
